Laboratory results taken from US10087219B2, “Human alpha-defensin 5 variant and uses thereof” (priority 2016, dated 2018).
Positions of bridges follow the written chain, without caps; N, C: chain ends. Residues, ends and D or L forms follow the SMILES beside them. No end group written: not given here. *: point of attachment. Myristoyl = CCCCCCCCCCCCCC(=O)*; Lauroyl = CCCCCCCCCCCC(=O)*

How the values were obtained:
THP-1 cells = experiment: Release of IL-1β mature body from LPS-stimulated THP-1 macrophages (immunoblotting); assay type: cell-based; details: LPS 100 ng/ml 3 h, FIG. 4
Protocol: THP-1 cells were cultured with RPMI-1640 culture media added with 10% fetal calf serum, and then inoculated on 24-well plate during logarithmic phase, 10^6 cells per well, added with PMA with final concentration of 100 nM for stimulating for 12 h so that cell adhered wall.
Media was exchanged with […] added with 10% fetal calf serum, and stood for 24 hours.
The following groups were set: blank group, LPS stimulation group, LPS+5 mM ATP group (positive control group), LPS+HD-5 group, LPS+HD-5Myr group, LPS+HD-5Lau group. 100 ng/ml lipopolysaccharide (LPS) was used or not to perform stimulation for 3 h, then gently washed twice with 1640 culture media, and then added or not with HD-5Myr or HD-5Lau with final concentration of 10 μg/ml and 20 μg/ml, or ATP with final concentration of 5 mM, or HD-5 with final concentration of 100 μg/ml and 200 μg/ml; and supernatant of each group was collected.
The proteins in supernatant in same volume were concentrated, lysed with protein lysis solution, and then release conditions of IL-1β mature body for different groups were compared by immunoblotting method.

human red cells = experiment: Hemolysis of human red cells; assay type: cell-based; details: 25 μg/ml; 4% human red cells, 37° C., 1 h; 10% Triton X-100 = 100% hemolysis; FIG. 3
Protocol: The hemolysis effects of antibacterial peptide HD-5 as well as its variants HD-5Myr and HD-5Lau on human red cell were measured.
Fresh human blood sample was collected, heparinized then centrifuged to take red cell layer;
washed with PBS for 3 times;
to EP tube, HD-5 and its variants with final concentrations of 50 μg/ml and 25 μg/ml were added separately; the positive control was added with 10% Triton X-100 in same volume, while the negative control was added with PBS in same volume.
4% human red cells were added separately, incubated at 37° C. for 1 h;
centrifuged, supernatant in same volume was taken and placed in 96-well plate, OD value at 540 nm was measured; by using the positive control as 100% hemolysis, and using the negative control as 0% hemolysis, the hemolysis rate for each well was calculated: Red cell hemolysis rate %=Test well OD value−negative control well OD valuePositive control well OD value−negative control OD×100%

E. coli ATCC 25922 = experiment: Antibacterial activity (LD90, optical density growth kinetics) against E. coli ATCC 25922; assay type: cell-based, Escherichia coli; details: concentration required for killing 90% bacteria, 2 h incubation at 37° C.
Protocol: (§1) According to measurement of antibacterial activity of antibacterial peptides, the antibacterial potencies of the variants HD-5Myr, HD-Lau and MyrHD-5 of HD-5 as synthesized in Example 2 as well as natural HD-5 were compared.
(§2) The experiments were carried out according to the method for detecting antibacterial activity of antibacterial peptide as reported by Ericksen et al in 2005 (Ericksen B, et al., Antibacterial activity and specificity of the six human {alpha}-defensins. Antimicrob Agents Chemother, 2005).
(§3) Bacteria were inoculated on LB agar plate, and placed in 37° C. constant temperature incubator until bacterial colonies grew. […] Optical density at 600 nm was measured with ELIASA, 1 OD600=4×10^8 CFU/ml, and the bacteria to be tested were diluted with sterile water to 2×10^6 CFU/ml.
(§4) To a sterile 96-plate, 50 μl of sterile water was added to each well, and then A1 well was added with an antibacterial peptide HD-5 sample diluted to a certain concentration. […] Optical density values at 600 nm were measured every 5 minutes in ELIASA at constant temperature of 37° C.
(§5) The measured optical density value minus the optical density value at time 0, and logarithm thereof was taken. […] According to this linear rule, bactericidal rates for different groups were calculated. […]

S. aureus ATCC 25923 = experiment: Antibacterial activity (LD90, optical density growth kinetics) against S. aureus ATCC 25923; assay type: cell-based, Staphylococcus aureus; details: concentration required for killing 90% bacteria, 2 h incubation at 37° C.
Protocol: as §1, §2, §3, §4, §5

MRSA-1 = experiment: Antibacterial activity (LD90, optical density growth kinetics) against MRSA-1; assay type: cell-based, methicillin-resistant Staphylococcus aureus; details: for LD90: MRSA-1 isolated in clinic, concentration required for killing 90% bacteria, 2 h incubation at 37° C.
Protocol: as §1, §2
Bacteria were inoculated on LB agar plate, and placed in 37° C. constant temperature incubator until bacterial colonies grew. Single colony was picked out, inoculated in 5 ml of LB culture media, and shake cultured at constant temperature of 37° C. for 4-6 h. It was then washed with sterile water twice. Optical density at 600 nm was measured with ELIASA, 1 OD600=4×10^8 CFU/ml, and the bacteria to be tested were diluted with sterile water to 2×10^6 CFU/ml.
To a sterile 96-plate, 50 μl of sterile water was added to each well, and then A1 well was added with an antibacterial peptide HD-5 sample diluted to a certain concentration. After being mixed evenly, 50 μl was taken therefrom and added to A2 well, thereby being diluted in multiple proportion manner in order, and 50 μl was sucked out from A6 well and discarded. By using the same method, MyrHD-5, HD-5Myr and HD-5Lau samples were diluted. The control well was 50 μl sterile water. Then, to each well, 50 μl of 2×10^6 CFU/ml bacteria was added, and shake cultured at constant temperature of 37° C. for 2 h. Then, 100 μl of LB culture media with double concentration was added separately. Optical density values at 600 nm were measured every 5 minutes in ELIASA at constant temperature of 37° C.
as §5

[1] = Micellar structure formation by transmission electron microscopy; assay type: physicochemical; details: uranyl acetate staining, FIG. 1
From the text: Small amounts of HD-5, HD-5Myr and HD-5Lau samples were taken and dropped on copper grid used for electron microscope, excessive samples were sucked out with filter paper, after being dried at room temperature, uranyl acetate was used for staining.

Row | Compound | hemolysis rate (human red cells) | LD90 (E. coli ATCC 25922) | LD90 (S. aureus ATCC 25923) | LD90 (MRSA-1) | further results
1 | Nc1ncnc2c1ncn2[C@@H]1O[C@H](COP(=O)(O)OP(=O)(O)OP(=O)(O)O)[C@@H](O)[C@H]1O [ATP] | – | – | – | – | Release of IL-1β mature body (THP-1 cells; then 5 mM ATP (positive control)): exhibited release of IL-1β mature body
2 | CCCCCCCCCCCC(=O)NCCCC[C@H](NC(=O)CNC(=O)[C@H](CCCNC(=N)N)NC(=O)[C@@H]1CSSC[C@H](NC(=O)[C@@H](NC(=O)[C@H](C)N)[C@@H](C)O)C(=O)N[C@@H](Cc2ccc(O)cc2)C(=O)N[C@H]2CSSC[C@@H]3NC(=O)[C@H](C(C)C)NC(=O)CNC(=O)[C@H](CO)NC(=O)[C@H](CC(C)C)NC(=O)[C@H](CO)NC(=O)[C@H](CCC(=O)O)NC(=O)[C@H](CCCNC(=N)N)NC(=O)[C@H]([C@@H](C)O)NC(=O)[C@H](C)NC(=O)[C@H](CSSC[C@H](NC(=O)[C@H](CC(C)C)NC(=O)[C@H](CCCNC(=N)N)NC(=O)[C@H](Cc4ccc(O)cc4)NC(=O)[C@H](CC(C)C)NC(=O)[C@H](CCCNC(=N)N)NC(=O)CNC(=O)[C@H](CO)NC(=O)[C@H]([C@@H](C)CC)NC(=O)[C@H](CCC(=O)O)NC3=O)C(=O)N1)NC(=O)[C@H](CCCNC(=N)N)NC(=O)CNC(=O)[C@H]([C@@H](C)O)NC(=O)[C@H](CCCNC(=N)N)NC2=O)C(N)=O [HD-5Lau] (H-ATCYCRTGRCATRESLSGVCEISGRLYRLCCRGK(Lauroyl)-NH2; disulfide 3-31, 5-20, 10-30) | 2.24% | – | – | – | –
3 | CCCCCCCCCCCCCC(=O)NCCCC[C@H](NC(=O)CNC(=O)[C@H](CCCNC(=N)N)NC(=O)[C@@H]1CSSC[C@H](NC(=O)[C@@H](NC(=O)[C@H](C)N)[C@@H](C)O)C(=O)N[C@@H](Cc2ccc(O)cc2)C(=O)N[C@H]2CSSC[C@@H]3NC(=O)[C@H](C(C)C)NC(=O)CNC(=O)[C@H](CO)NC(=O)[C@H](CC(C)C)NC(=O)[C@H](CO)NC(=O)[C@H](CCC(=O)O)NC(=O)[C@H](CCCNC(=N)N)NC(=O)[C@H]([C@@H](C)O)NC(=O)[C@H](C)NC(=O)[C@H](CSSC[C@H](NC(=O)[C@H](CC(C)C)NC(=O)[C@H](CCCNC(=N)N)NC(=O)[C@H](Cc4ccc(O)cc4)NC(=O)[C@H](CC(C)C)NC(=O)[C@H](CCCNC(=N)N)NC(=O)CNC(=O)[C@H](CO)NC(=O)[C@H]([C@@H](C)CC)NC(=O)[C@H](CCC(=O)O)NC3=O)C(=O)N1)NC(=O)[C@H](CCCNC(=N)N)NC(=O)CNC(=O)[C@H]([C@@H](C)O)NC(=O)[C@H](CCCNC(=N)N)NC2=O)C(N)=O [HD-5Myr] (H-ATCYCRTGRCATRESLSGVCEISGRLYRLCCRGK(Myristoyl)-NH2; disulfide 3-31, 5-20, 10-30) | 6.83% | – | – | – | –
4 | Human defensin-5 (ATCYCRTGRCATRESLSGVCEISGRLYRLCCR; disulfide 10-30, 5-20, 3-31; listed as Homo sapiens) [HD-5, the modification template] | – | 6.691 µg/mL | >12.5 µg/mL | 5.850 µg/mL | LD90 against methicillin-resistant Staphylococcus aureus compared with LD90 against Staphylococcus aureus ATCC 25923 (MRSA-1; MRSA versus S. aureus ATCC 25923): far lower; Formation of micellar structure [1]: micellar structure was not observed; Release of IL-1β mature body (THP-1 cells; then peptide at 100 μg/ml and 200 μg/ml): could promote the release of IL-1β mature body
5 | MyrHD-5: 33-residue N-terminally modified HD-5 variant (SEQ ID NO: 3), Gly1 amino group linked to a myristoyl (Myristoyl-GATCYCRTGRCATRESLSGVCEISGRLYRLCCR; disulfide 11-31, 6-21, 4-32) | – | >12.5 µg/mL | 6.280 µg/mL | 1.400 µg/mL | –
